The text below walks through data of ChEMBL document CHEMBL1135611, “Thrombin inhibition by novel benzamidine derivatives: a free-energy perturbation study” (J Med Chem, 2002).

For this test, the target named is Prothrombin (Homo sapiens, UniProt P00734). The experiment in a line: Binding Affinity to Thrombin.

The compound `NC(N)c1ccc(CC(=O)C(=O)O)cc1` yielded a Ki of 620 nM.

`NC(N)c1ccccc1` came in with a Ki of 300 nM.

Broadly, the Ki is the dissociation constant of the complex between target and ligand, obtained from inhibition or displacement. High values mean weaker binding, low ones tighter binding.
